Measurements from patent publication US20240285616A1, “THERAPEUTIC TREATMENT OF CHROMATINOPATHIES” (UNIVERSITA' DEGLI STUDI DI TRENTO, priority 2020, published 2024).
Where two headings read alike, the source gives them in different places.

Key:
MLL4^Q4092X MSCs [1] = experiment: Nuclear morphology, chromatin compaction and Lamin A/C after HDAC inhibitor treatment; assay type: cell-based, human
Protocol: (§1) For immunofluorescence assays, cells were seeded on coverslips coated with 0.1% gelatin (Sigma Aldrich #G1393). When needed, cells where fixed with 4% paraformaldeide for […] at 4° C. Coverslips were processed as described: permeabilization and blocking with PBS/1% BSA/5% goat serum/0.5% Triton X-100 (blocking solution) for 1 hour at room temperature, followed by incubation with primary antibody (diluted in the blocking solution) for 2 hours at RT (or overnight at 4° C., depending on the used primary antibody), 3-5 washes in PBS and incubation with secondary antibodies (diluted in the blocking solution), DRAQ5 for nuclear staining and phalloidin-TRITC for 1 h at room temperature. Images were acquired using a Leica TCS SP5 confocal microscope with HCX PL APO 63×/1.40 objective. Confocal z stacks were acquired with sections of 0.5 μm. In cases where image analysis was performed, image acquisition settings were kept constant.
Confocal imaging data analyses were performed using Image J software. For 2D/3D analysis RDAQ5 DNA dye was used to identify the nucleus and define the ROI. Then the fluorescence intensity and physical parameters were determined. For the measure of volume and flatness the inventors performed a 3D analyses using the “3D plugin 596 suite”, an Image J plugin.

MLL4^Q4092X MSCs [2] = experiment: H3K27me3 level and PcG condensate clustering after HDAC inhibitor treatment; assay type: cell-based, human
Protocol: as §1
In order to automatically detect and quantify PcG and TrxG complex proteins in fluorescence cell image z-stacks, the inventors developed an algorithm that implements a method derived from (Gregoretti et al., 2016) with variants and adaptations. The algorithm performs the 2D segmentation of cell nuclei and the detection of Protein Bodies (PBs) for each slice of the stack, followed by the 3D reconstruction and identification of nuclei and PBs. […]

MLL4^Q4092X MSCs [3] = experiment: Nuclear to cytosolic localization of YAP/TAZ by immunofluorescence; assay type: cell-based, human; conditions: sparse condition
Protocol: Cell lines used in this study include NIH 3T3 (ATCC), HEK293T (ATCC), human primary fibroblasts derived from either healthy of Kabuki patients (Genomic and Genetic Disorders Biobank) and hTERT-immortalized human adipose-derived MSCs. Primary fibroblasts, NIH3T3 and HEK293T were maintained at 37° C. and 5% CO2 in DMEM medium supplemented with 10% Fetal Bovine Serum (Euroclone #ECS0180L), while MSCs were cultured in 1:1 DMEM/F-12 medium (Gibco #11320-074) supplemented with 10% Fetal Bovine Serum (Euroclone #ECS0180L).
For immunofluorescence assays, cells were seeded on coverslips coated with 0.1% gelatin (Sigma Aldrich #G1393). When needed, cells where fixed with 4% paraformaldeide for minutes at 4° C. […]
To quantify the nuclear to cytosolic localization of YAP-TAZ, the inventors adapted previously published MATLAB routines (Zambrano et al., 2016). […]
To estimate the average cytosolic intensity per cell, a ring of 30 pixels width (approximately 7 microns) around each segmented nuclei was found. […] The inventors then calculated for each cell the Nuclear to Cytosolic Intensity (NCI) as the ratio of the background corrected nuclear and cytosolic average YAP-TAZ intensity.

MLL4^Q4092X MSCs [4] = experiment: DNA damage response in MSCs after ATR inhibition (immunofluorescence); assay type: cell-based, human; conditions: MLL4^Q4092X MSCs treated with ATR inhibitor
Protocol: as §1

MLL4^Q4092X MSCs [5] = experiment: Gene expression profiling (RNA-seq) of MSCs after VE-822 treatment; assay type: cell-based, human; conditions: 8 and 24 hours after ATR inhibition
Protocol: WT and MLL^4Q4092X MSCs were seeded as sparse (5000 cells/cm^2) condition and collected 48 h after plating, either untreated or at 8 and 24 hours after ATR inhibition (VE-822 treatment) (medchem express #HY-13902/cs-1861). Cells were directly lysed on plates with TRIzol (Thermo Fisher cat. #15596026), and total RNAs were extracted according to the manufacturer's instructions.
Contaminating genomic DNA was removed by DNase (Qiagen 843 cat. #79254) digestion. RNA quality and concentration were assessed using the 2100 Bioanalyzer (Agilent cat. #G2939BA) and the Qubit fluorometer (Thermo Fisher cat. #Q33226), respectively. 3′-RNA-seq libraries were prepared by using the QuantSeq 3′ mRNA-Seq Library Prep Kit FWD for Illumina (Lexogen cat. #015.24) and starting from 500 ng of total RNA. Libraries were sequenced as single reads of 50 bp with the Illumina HiSeq2500. Three independent biological replicates were performed for each cell line and time point and sequenced as independent libraries.
Raw reads from fastq files were first checked for their quality using FastQC and trimmed using Trimmomatic (Bolger et al., 2014). Trimmed reads were aligned to the reference human genome assembly hg38/GRCh38 using STAR with default parameters. […] For annotation of the reads to the genome, HOMER was employed with the following command ‘analyzeRepeats.pl rna hg38-count 3utr-rpkm’. […]

MLL4^Q4092X MSCs [6] = experiment: Chondrocyte micromass differentiation of MSCs (Alcian blue); assay type: cell-based, human; conditions: in vitro
Protocol: For chondrocyte micromass culture, a cell solution of 1.6× 10^7 viable cells/mL was produced. Micromass cultures were generated by seeding 5-μL droplets of cell solution. After cultivating micromass cultures for 2 hours under high humidity conditions, MSCs medium was added. The day after, the medium was changed with chondrogenesis medium (Gibco #A10069-01) supplemented with Stem-Pro Chondrogenesis supplement (Gibco #10064-01). For complete differentiation, cells were maintained in culture for three weeks changing media regularly.
To detect chondrogenesis, cells were washed with PBS and fixed in 4% formaldehyde for 1 hr at RT and then washed with PBS. Cells were incubated with Alcian blue solution (1 g/L in 0.1 M HCl, Sigma-Aldrich #B8438) for 6 hrs at room temperature and then extensively washed with PBS. To measure Alcian blue deposition, dry wells were incubated with 1 mL of 6 N Guanidine HCl for 1 hour and then the absorbance was measured with a spectofotometer measured between 600 and 650 nm.

Kmt2d morphants = assay type: in vivo; conditions: Kmt2d morphant medaka embryos grown in 0.15 μM VE822
Protocol: (§2) The Cab-strain of wt medaka fish (Oryzias latipes) was maintained following standard conditions (i.e., 12 h/12 h dark/light conditions at 27° C.). Embryos were staged according to the method proposed by Iwamatsu. All studies on fish were conducted in strict accordance with the institutional guidelines for animal research and approved by the Italian Ministry of Health: Department of Public Health, Animal Health, Nutrition, and Food Safety.
(§3) The available medaka olKmt2d (ENSORLT00000009505.1) genomic sequences were retrieved from a public database (UCSC Genome Browser, http://genome.ucsc.edu/) from human KMT2D (NM_003482.3) transcript. A morpholino (Mo: Gene Tools LLC, Oregon, USA) was designed against the ATG initiation codon within the 5′ untranslated region of the medaka ortholog of the (MO-Kmt2d: 5′-[…]-3′) of the medaka orthologous of the KMT2D gene. The specificity and inhibitory efficiencies of morpholino was determined as previously described (Conte et al., 2015). MO-Kmt2d was injected at 0.015 mM concentration into one blastomere at the one/two-cell stage. Off-target effects of the morpholino injections were excluded by repeated experiments with control morpholino or by co-injection with a p53 morpholino. For the drug treatment, chorions from injected and control embryos were removed with the hatching enzyme at St32. […]

olKmt2d = experiment: Kmt2d morpholino injection in medaka embryos (in vivo model for KS); set-up: species or system Oryzias latipes; conditions: MO-Kmt2d injected at 0.015 mM, of 1,600 injected embryos, later developmental stages
Protocol: as §2, §3

CC(/C=C/C(=O)NO)=C\[C@@H](C)C(=O)c1ccc(N(C)C)cc1 [TSA]
chromatin organization and nuclear architecture (MLL4^Q4092X MSCs [1]): rescued the altered chromatin organization and nuclear architecture
nuclear morphology and structure (relative abundance of Lamin A/C) (MLL4^Q4092X MSCs [1]): sufficient to re-establish proper nuclear morphology and structure
H3K27me3 level (MLL4^Q4092X MSCs [2]): reduced
clustering of PcG condensates (MLL4^Q4092X MSCs [2]): reduced

CNCc1ccc(-c2cc(-c3nc(-c4ccc(S(=O)(=O)C(C)C)cc4)cnc3N)on2)cc1 [VE-822, BERZOSERTIB]
YAP/TAZ nuclear localization (mechanical properties of MSCs) (MLL4^Q4092X MSCs [3]): restored YAP/TAZ nuclear localization
YAP/TAZ nuclear localization (mechanical properties of MSCs) (MLL4^Q4092X MSCs [3]; listed as VX-970): sufficient to restore the mechanical properties
DNA damage response (MLL4^Q4092X MSCs [4]): without affecting DNA damage response
expression of a subset of ATR responsive genes (architectural chromatin genes) (MLL4^Q4092X MSCs [5]): rescued
chondrogenic differentiation potential (MLL4^Q4092X MSCs [6]; listed as ATR inhibitor): partially rescued
chondrogenic differentiation potential (MLL4^Q4092X MSCs [6]; listed as VX-970): sufficient to abolish the differentiation defects
chondrogenic and skeleton defects, head morphogenesis (Kmt2d morphants; listed as ATR inhibitor): sufficient to restore the chondrogenic and skeleton defects
chondrogenic and skeleton defects, head morphogenesis (Kmt2d morphants; listed as VX-970): sufficient to completely recover the chondrogenic and osteogenic defects

MO-Kmt2d: morpholino against the ATG initiation codon of medaka Kmt2d, 5′-CCCTGCTGCTGCTTTGATCTTTTTG-3′ (all phosphorodiamidate morpholino (PMO))
embryos with morphological cranio-facial anomalies (olKmt2d): 73±5%
